These results are taken from patent US9051310B2, “Nicotinamide derivative or salt thereof” (FUJIFILM Corporation, priority 2011, dated 2015).

Test [1] concerns the target T1, glutathione S-transferase (GST)-linked full-length human Syk protein (Homo sapiens, UniProt P43405).
T1 construct: glutathione S-transferase (GST)-linked full-length human Syk protein; purchased Carna Biosciences; host or cells: Baculovirus expression system
Briefly: Syk enzyme assay. The class given is biochemical. The conditions noted are these: 0.83 nM Syk, time-resolved fluorescence; read-out: IC50 of Syk-inhibitory activity. Summed up:
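Phosphotyrosine on a biotin-peptide substrate (0.5 μM) was read by time-resolved fluorescence at 615 and 665 nm with Eu-anti-pTyr antibody and APC-streptavidin after 1 h EDTA stop.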

The subject of test [2] is THP-1 cells (phagocytosis of opsonized Escherichia coli). In words: Antibody-dependent phagocytosis assay. The class given is cell-based. The following applies: Homo sapiens; IFNγ differentiated THP-1 cells, opsonized pHrodo Escherichia coli, 3 hours; read-out: IC50 upon phagocytosis inhibition. A digest of the protocol:
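Read-out was imaging-based quantification of pHrodo-labeled, antibody-opsonized E. coli taken up by Calcein AM-stained viable cells after 3 h at 37° C. The cells were IFNγ-differentiated THP-1 macrophages (10 ng/ml, 2 days), preincubated with compound for 30 min at room temperature.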

Test [3] relates to mouse thrombocytopenia induced by anti-mouse CD41 antibody. In words: Mouse thrombocytopenia model. The class given is in vivo. The following applies: Platelet, female BALB/c mice, 50 mg/kg 1 hour before anti-CD41 antibody, blood sampling 4 hours after antibody, read-out: improvement of platelet count compared with the control group. As for the experimental part: Test compounds were tested to examine effects upon mouse thrombocytopenia. Each test compound (50 mg/kg) was administered to 5- to 7-week-old female BALB/c mice (Charles River Laboratories Japan, Inc.). One hour thereafter, an anti-mouse CD41 ([…]) antibody (SCB) (1 μg (200 μl)) was intravenously administered to each mouse so as to induce thrombocytopenia. Four hours after administration of the anti-CD41 antibody, blood sampling from the postcava was performed. The platelet count was determined using an automated hematology analyzer.

For test [4], the system named is THP-1 cells (TNFα secretion on human IgG-coated plate). In words: TNFα generation assay. The following applies: IFN-γ differentiated THP-1 cells, 7 hours, AlphaLISA, read-out: IC50 of TNFα generation inhibitory activity. In kind it is cell-based. A digest of the protocol:
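Secreted TNFα was measured by AlphaLISA after 7 h of culture on human IgG-coated wells (coating at 10 μg/ml), with 5×10^4 cells/well. Before plating, the cells had been treated with compound for 30 min at room temperature. The cells were macrophage-like THP-1, produced by a 2-day exposure to 10 ng/ml IFN-γ.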
(Alpha assays give light when donor and acceptor beads are brought close together.)

On to `CC[C@H](N)[C@H](Nc1nc(Nc2cnc(C)c(-n3nccn3)c2)c(C(N)=O)cc1F)C1CC1` [Example 2-358, 6-(((1R,2S)-2-amino-1-cyclopropylbutyl)amino)-5-fluoro-2-((6-methyl-5-(2H-1,2,3-triazol-2-yl)pyridin-3-yl)amino)nicotinamide], for which the results for the IC50 in test [1] and in test [2] were 0.01 to 0.05 µM and 1 to 3 µM, respectively. Moreover, the change in vivo at 50 mg/kg in test [3] is at least 50%.

For `NC(=O)c1cc(F)c(N[C@@H]2CCCC[C@@H]2N)nc1Nc1cncc(-n2cc(Cl)cn2)c1` [Example 2-483, 6-(((1R,2S)-2-aminocyclohexyl)amino)-2-((5-(4-chloro-1H-pyrazol-1-yl)pyridin-3-yl)amino)-5-fluoronicotinamide], the IC50 in test [1] was below 0.01 µM. Besides, the change in vivo at 50 mg/kg in test [3] was at least 50%.

For the compound `C[C@H](N)[C@H](Nc1nc(Nc2ccc3c(c2)c(N(C)C)nn3C)c(C(N)=O)cc1F)C1CCC1` [Example 2-89, 6-(((1R,2S)-2-amino-1-cyclobutylpropyl)amino)-2-((3-(dimethylamino)-1-methyl-1H-indazol-5-yl)amino)-5-fluoronicotinamide], the IC50 in test [1] is below 0.01 µM; in test [2], 1 to 3 µM. In addition, in test [3], the change in vivo at 50 mg/kg was at least 50%.

Consider `Cc1ncc(Nc2nc(N[C@H](c3cccs3)[C@H](C)N)c(F)cc2C(N)=O)cc1-n1nccn1` [Example 2-415, 6-(((1S,2S)-2-amino-1-(thiophen-2-yl)propyl)amino)-5-fluoro-2-((6-methyl-5-(2H-1,2,3-triazol-2-yl)pyridin-3-yl)amino)nicotinamide], for which the IC50 is below 0.01 µM in test [1] and 0.13 to 0.2 µM in test [4]. In addition, the change in vivo at 50 mg/kg in test [3] was at least 50%.

Take `CCn1ncc2cc(Nc3nc(N[C@@H]4CCOC[C@@H]4N)c(F)cc3C(N)=O)ccc21` [Example 2-326, 6-(((3R,4R)-3-aminotetrahydro-2H-pyran-4-yl)amino)-2-((1-ethyl-1H-indazol-5-yl)amino)-5-fluoronicotinamide]: the IC50 in test [1] was below 0.01 µM; in test [4], below 0.065 µM. The change in vivo at 50 mg/kg in test [3] is at least 50%.

With `Cc1cc(C)n(-c2cncc(Nc3nc(N[C@@H]4CCCC[C@@H]4N)c(F)cc3C(N)=O)c2)n1` [Example 2-473, 6-(((1R,2S)-2-aminocyclohexyl)amino)-2-((5-(3,5-dimethyl-1H-pyrazol-1-yl)pyridin-3-yl)amino)-5-fluoronicotinamide], the IC50 in test [1] fell in the range of 0.01 to 0.05 µM. Moreover, in test [3], the change in vivo at 50 mg/kg was at least 50%.

As for `Cc1cncc(Nc2nc(N[C@@H]3CCOC[C@@H]3N)c(F)cc2C(N)=O)c1` [Example 2-218, 6-(((3R,4R)-3-aminotetrahydro-2H-pyran-4-yl)amino)-5-fluoro-2-((5-methylpyridin-3-yl)amino)nicotinamide], the IC50 in test [1] was in the range of 0.01 to 0.05 µM; in test [2] it was 1 to 3 µM; in test [4], 0.065 to 0.13 µM.

In the case of `CNc1ncc(Nc2nc(N[C@H](C3CCC3)[C@H](C)N)c(F)cc2C(N)=O)cc1F` [Example 2-275, 6-(((1R,2S)-2-amino-1-cyclobutylpropyl)amino)-5-fluoro-2-((5-fluoro-6-(methylamino)pyridin-3-yl)amino)nicotinamide], the values for the IC50 in test [1], in test [2] and in test [4] were 0.01 to 0.05 µM, 1 to 3 µM and 0.13 to 0.2 µM, respectively.

With `CC[C@H](N)[C@@H](C)Nc1nc(Nc2ccc3c(c2)c(C)nn3CCOC)c(C(N)=O)cc1F` [Example 2-136, 6-(((2R,3S)-3-aminopentan-2-yl)amino)-5-fluoro-2-((1-(2-methoxyethyl)-3-methyl-1H-indazol-5-yl)amino)nicotinamide], the IC50 in test [1] lay within 0.01 to 0.05 µM; in test [2] it was 1 to 3 µM; in test [4], 0.13 to 0.2 µM.

As for `COc1ncc(Nc2nc(N[C@H](CC(C)C)[C@H](C)N)c(F)cc2C(N)=O)cc1F` [Example 2-66, 6-(((2S,3R)-2-amino-5-methylhexan-3-yl)amino)-5-fluoro-2-((5-fluoro-6-methoxypyridin-3-yl)amino)nicotinamide], the IC50 is 0.01 to 0.05 µM in test [1], below 1 µM in test [2] and 0.13 to 0.2 µM in test [4].

Regarding `CC[C@@H](Nc1nc(Nc2ccc3c(c2)c(OC)nn3CC)c(C(N)=O)cc1F)[C@H](C)N` [Example 2-52, 6-(((2S,3R)-2-aminopentan-3-yl)amino)-2-((1-ethyl-3-methoxy-1H-indazol-5-yl)amino)-5-fluoronicotinamide], the IC50 in test [1] is below 0.01 µM; in test [2] it was below 1 µM; in test [4], 0.13 to 0.2 µM.

For `COCCN(C)c1nn(C)c2ccc(Nc3nc(N[C@@H]4CCCC[C@@H]4N)c(F)cc3C(N)=O)cc12` [Example 2-456, 6-(((1R,2S)-2-aminocyclohexyl)amino)-5-fluoro-2-((3-((2-methoxyethyl)(methyl)amino)-1-methyl-1H-indazol-5-yl)amino)nicotinamide], in test [1], the IC50 is below 0.01 µM. In test [3], the change in vivo at 50 mg/kg is at least 50%.

As for `CC[C@H](N)[C@@H](CC)Nc1nc(Nc2cnc(C)c(C)c2)c(C(N)=O)cc1F` [Example 2-36, 6-(((3R,4S)-4-aminohexan-3-yl)amino) 2-((5,6-dimethylpyridin-3-yl)amino)-5-fluoronicotinamide], the IC50 is 0.01 to 0.05 µM in test [1], 1 to 3 µM in test [2] and 0.13 to 0.2 µM in test [4].

With `CCn1ncc2c(Nc3nc(N[C@H](C4CCC4)[C@H](C)N)c(F)cc3C(N)=O)cncc21` [Example 2-406, 6-(((1R,2S)-2-amino-1-cyclobutylpropyl)amino)-2-((1-ethyl-1H-pyrazolo[3,4-c]pyridin-4-yl)amino)-5-fluoronicotinamide], the values for the IC50 in test [1], in test [2] and in test [4] were below 0.01 µM, 1 to 3 µM and 0.13 to 0.2 µM, respectively.

With `COCCn1ncc2c(Nc3nc(N[C@H](C4CC4)[C@H](C)N)c(F)cc3C(N)=O)cccc21` [Example 2-306, 6-(((1R,2S)-2-amino-1-cyclopropylpropyl)amino)-5-fluoro-2-((1-(2-methoxyethyl)-1H-indazol-4-yl)amino)nicotinamide], the results for the IC50 in test [1], in test [2] and in test [4] were below 0.01 µM, 1 to 3 µM and 0.13 to 0.2 µM, respectively.

For `CC[C@@H](Nc1nc(Nc2cnc(C)c(C)c2)c(C(N)=O)cc1F)[C@H](C)N` [Example 2-17, 6-(((2S,3R)-2-aminopentan-3-yl)amino)-2-((5,6-dimethylpyridin-3-yl)amino)-5-fluoronicotinamide], the IC50 was below 0.01 µM in test [1], below 1 µM in test [2] and 0.065 to 0.13 µM in test [4].

Regarding `Cc1ncc(Nc2nc(N[C@H](C3CCC3)[C@H](C)N)c(F)cc2C(N)=O)cc1F` [Example 2-221, 6-(((1R,2S)-2-amino-1-cyclobutylpropyl)amino)-5-fluoro-2-((5-fluoro-6-methylpyridin-3-yl)amino)nicotinamide], the IC50 in test [1] is below 0.01 µM; in test [2], below 1 µM; in test [4], 0.13 to 0.2 µM.

As for `CCn1ncc2c(Nc3nc(N[C@H](CC(C)C)[C@H](C)N)c(F)cc3C(N)=O)cncc21` [Example 2-322, 6-(((2S,3R)-2-amino-5-methylhexan-3-yl)amino)-2-((1-ethyl-1H-pyrazolo[3,4-c]pyridin-4-yl)amino)-5-fluoronicotinamide], the IC50 in test [1] was below 0.01 µM; in test [2], below 1 µM; in test [4], 0.065 to 0.13 µM.

With `CC[C@@H](Nc1nc(Nc2cnc3c(c2)c(OC)nn3C)c(C(N)=O)cc1F)[C@H](C)N` [Example 2-251, 6-(((2S,3R)-2-aminopentan-3-yl)amino)-5-fluoro-2-((3-methoxy-1-methyl-1H-pyrazolo[3,4-b]pyridin-5-yl)amino)nicotinamide], the figures for the IC50 in test [1] and in test [4] were 0.01 to 0.05 µM and 0.13 to 0.2 µM, respectively. Further, in test [3], the change in vivo at 50 mg/kg was at least 50%.

As to `CC[C@@H](Nc1nc(Nc2cc(F)cc3c2cnn3CCOC)c(C(N)=O)cc1F)[C@H](C)N` [Example 2-376, 6-(((2S,3R)-2-aminopentan-3-yl)amino)-5-fluoro-2-((6-fluoro-1-(2-methoxyethyl)-1H-indazol-4-yl)amino)nicotinamide], the values for the IC50 in test [1], in test [2] and in test [4] were below 0.01 µM, below 1 µM and 0.065 to 0.13 µM, respectively.

As to `CC[C@@H](Nc1nc(Nc2ccc3c(c2)c(N(C)C)nn3C)c(C(N)=O)cc1F)[C@H](C)N` [Example 2-4], the IC50 in test [1] is below 0.01 µM; in test [2], 1 to 3 µM; in test [4] it was 0.065 to 0.13 µM.

As for `Cc1nn(CC(F)F)c2ccc(Nc3nc(N[C@@H]4CCOC[C@@H]4N)c(F)cc3C(N)=O)cc12` [Example 2-328, 6-(((3R,4R)-3-aminotetrahydro-2H-pyran-4-yl)amino)-2-((1-(2,2-difluoroethyl)-3-methyl-1H-indazol-5-yl)amino)-5-fluoronicotinamide], the IC50 in test [1] was below 0.01 µM; in test [4], below 0.065 µM. Also, the change in vivo at 50 mg/kg in test [3] was at least 50%.
